The text below walks through data of US20220177515A1, “METHOD FOR MODIFYING AMINO GROUP IN MOLECULE WITH THE ZOLINIUM AND USE THEREOF” (priority 2019, published 2022).

The test system of data set [1] is Hepatocarcinoma SMMC-7721 cells. Briefly: Cell proliferation inhibition assay (SRB method), SMMC-7721. Format: cell-based. To be noted: for IC50: SMMC-7721, 72 hours, SRB. As to the method: (§1) Hepatocarcinoma BEL-7402 and SMMC-7721 cells were purchased from American Standard Bacterial Bank. All cell lines were stored in a cell culture medium containing 10% fetal bovine serum in a humid environment at 37° C. and 5% CO2. The two kinds of hepatocarcinoma cells were seeded in 96-well plates overnight. The assay were performed using a final highest concentration of 100 μM, 10-fold dilution, 6 gradients and 3 duplicates, and the cells were treated for 72 hours and three independent repeated experiments were carried out. The antiproliferative activity of the compound was determined by Sulforhodamine B (SRB) method. Then the absorbance OD value at a wavelength of 510 nm was measured on a Synergy H4 Hybrid reader (BioTek, Winooski, Vt., USA) by using Gen5.0 software (BioTek). The IC50 value was calculated using the software Prism 5 (GraphPad Software, Inc).

In data set [2] the test system is Hepatocarcinoma BEL-7402 cells. Briefly: Cell proliferation inhibition assay (SRB method), BEL-7402. Format: cell-based. To be noted: for IC50: BEL-7402, 72 hours, SRB. As to the method: as §1
A further data set concerns the target tankyrase (TNKS). To be noted: read-out: IC50 (TNKS inhibitor); cited from earlier work.
A further data set has as its target μ-opioid receptor (MOR) (Homo sapiens, UniProt P35372). As to the kind of experiment: [35S]GTPγS binding assay, MOR agonist activity. It is filed as biochemical. To be noted: for Emax: [35S]GTPγS binding rate. As to the method:
Protein concentration was detected using BCA protein concentration assay kit: 10 μl of protein standard was prepared into a final concentration of 0.5 mg/ml. 0, 1, 2, 4, 8, 12, 16, or 20 μl of BSA standard protein was taken and added together with the sample to be tested to a 96-well plate, and supplemented to 20 μl with the solution for diluting the standard. 200 μl of BCA working solution was added to each well and placed at 37° C. for 30 min. The absorbance at A562 wavelength was measured with a microplate reader. The protein concentration was calculated based on the standard curve.
The prepared membrane receptor was diluted to the required concentration with the reaction buffer (R.B), and the samples were added as shown in Table 2 (unit: μl).
The reaction tube was incubated in a 27° C. water bath for 1 hour, and the mixture was filtered through a glass fiber membrane under reduced pressure and liquid scintillation counting was performed. The following equation was used to perform calculation:
[^35S] GTPγS binding rate=100×(cpmsample−cpmnon-specific)/(cpmbasal−cpmnon-specific)
For orientation: Binding of GTPγS marks nucleotide exchange on a G protein.

The format of data set [3] is in vitro ADME. To be noted: 1 mg/ml in pig liver slurry, 0.25-3 hour, FIG. 3. As to the method: 5 g of a fresh pig liver from which adhering fat and connective tissue were removed, was washed with a cold saline, absorbed water on its surface with a filter paper and weighed. The liver was cut into pieces with a scissors, added with an appropriate amount of a PBS buffer, and homogenized with a homogenizer at a frequency of 30/s for 4 minutes to prepare 20 ml of a slurry. The compound 2-40 to be tested (at a final concentration of 1 mg/ml with a co-solvent (1% DMSO)) was added into the 20 ml pig liver slurry, stirred thoroughly and left stand. 1 ml of samples were withdrawn twice at six time points: 0.25 hour, 0.5 hour, 1 hour, 1.5 hour, 2 hour and 3 hour, respectively, and added with methanol (500 μl) to stop the reaction. After centrifugation (1000 rpm, 6 minutes), the supernatant was separated and extracted twice with 750 μl of water-saturated n-butanol. The extracted samples were then analyzed by HPLC. The HPLC analysis was performed on an Agilent Zorbax SB-C18 column (5 μm, 4.6×250 mm) with a flow rate of […] at 25° C. The gradient condition used was from 50% A (MeOH) and 50% B (H2O+0.2% CH3COOH) to 95% A and 5% B in 16 minutes. The absorbance values at 210, 254 and 280 nm were collected using a UV-DAD detector.

Starred links: 1 amine or outer side, 2 acyl side, 3 side chain; linkers in the order of their positions; H or OH if unused. Non-standard residues stand in square brackets, D forms with d. Residues, ends and D or L forms follow the SMILES beside them. X1 = O=C([C@H](Cc1ccc(O)cc1)N(c1ccc2ccccc2n1)[*:1])[*:2] Where only a bound is given, the exact number is not on record here.

Sequence of μ-opioid receptor (MOR) (P35372 whole entry): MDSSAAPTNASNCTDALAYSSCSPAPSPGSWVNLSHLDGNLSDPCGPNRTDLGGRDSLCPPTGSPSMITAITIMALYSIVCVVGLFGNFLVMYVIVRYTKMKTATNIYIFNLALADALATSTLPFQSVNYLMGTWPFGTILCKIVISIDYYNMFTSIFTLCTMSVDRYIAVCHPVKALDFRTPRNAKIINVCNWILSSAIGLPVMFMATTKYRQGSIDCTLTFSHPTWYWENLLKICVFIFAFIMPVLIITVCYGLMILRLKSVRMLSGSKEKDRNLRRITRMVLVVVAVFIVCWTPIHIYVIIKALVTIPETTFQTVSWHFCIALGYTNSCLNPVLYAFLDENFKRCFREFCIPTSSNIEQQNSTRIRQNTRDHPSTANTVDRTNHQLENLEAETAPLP

Take `COC(=O)[C@H](CC(C)C)NC(=O)[C@H](CO)NC(=O)[C@@H](N)Cc1ccc(O)cc1` [YSL-M, tyroserleucide methyl ester, reference compound] (H-Tyr-Ser-Leu-OMe; N-terminus assumed): the IC50 in data set [1] and in data set [2] was > 100 µM in each case.
As to `CC(C)C[C@H](NC(=O)[C@H](CO)NC(=O)[C@@H](N)Cc1ccc(O)cc1)C(=O)O` [YSL, Tyroserleutide, reference compound] (H-Tyr-Ser-Leu-OH; N-terminus and C-terminus assumed), the IC50 in data set [1] and in data set [2] was > 100 µM each time.
With `Cc1cc(=O)[nH]c2cc(-c3ccccc3F)ccc12` [7-(2-fluorophenyl)-4-methylquinoline-2(1H)-one], at tankyrase (TNKS), the IC50 (usually the concentration that gives 50% inhibition) is 0.052 µM.
For the molecule `C[C@@H](NC(=O)[C@@H](N)Cc1ccc(O)cc1)C(=O)N[C@@H](Cc1ccccc1)C(=O)NCC(=O)N[C@@H](Cc1ccc(O)cc1)C(=O)N1CCC[C@H]1C(=O)N[C@@H](CO)C(N)=O` [derorphin, reference compound], the Emax (commonly the maximal effect, on the per cent scale that the assay sets) on μ-opioid receptor (MOR) (mean ± sem) came to 219 ± 7.1%.
On to `C[C@H](NC(=O)[C@H](Cc1ccc(O)cc1)Nc1ccc2ccccc2n1)C(=O)N[C@H](Cc1ccccc1)C(=O)NCC(=O)N[C@H](Cc1ccc(O)cc1)C(=O)N1CCC[C@H]1C(=O)N[C@@H](CO)C(N)=O` [Compound 2-38] (H-[X1]A[dF]G[dY]PS-NH2), for which, on μ-opioid receptor (MOR), the “MOR agonist activity compared with derorphin” value is given as “activity comparable to that of derorphin”. Moreover, at μ-opioid receptor (MOR) (mean ± sem), the EC50 (in general, the concentration that produces a half-maximal response) was 0.224 ± 0.0251 µM and the Emax was 203 ± 5.1%.
`COC(=O)[C@H](CC(C)C)NC(=O)[C@H](CO)NC(=O)[C@H](Cc1ccc(O)cc1)Nc1ccc2ccccc2n1` [Compound 2-39]: the “cytotoxicity compared with unmodified drugs” value in data set [1] (SMMC-7721) and in data set [2] (BEL-7402) was “better cytotoxicities than the unmodified drugs” throughout. In addition, the IC50 in data set [1] is 63.3 ± 6.35 µM; in data set [2], 52.6 ± 2.47 µM.
In the case of `C=C(/C=C\C(=C)NC(=O)[C@H](CCCNC(N)=O)NC(=O)[C@@H](Nc1cc(C)c2ccc(-c3ccccc3F)cc2n1)C(C)C)CO` [Compound 2-40], the “metabolic stability in liver tissue” value in data set [3] is “good metabolic stability”.
